Assay [1] deals with CDK6/cyclin D1 (Homo sapiens, UniProt Q00534). In words: Biochemical kinase inhibition test, CDK6/cyclin D1 (similar method). Particulars: for IC50: three-fold serial dilution from 10 μM, 10 μM ATP, read-out: CDK6/D1 (nM), enzyme inhibitory activity IC50; for selectivity for CDK6/cyclin D1 relative to CDK4/cyclin D1 (enzyme inhibitory activity): CDK6/cyclin D1 versus CDK4/cyclin D1. The method, then:
Potency determination of biochemical kinase inhibition test. Kinase activity test and IC50 determination. Firstly, 10 ng of recombinant CDK4/Cyclin D1 (Life Technologies PV4204) was diluted in kinase buffer (20 mM Tris pH 7.5, 10 mM MgCl2, 0.01% NP-40, 2 mM DTT), and was incubated with inhibitors at the indicated concentration at room temperature for 30 minutes. The kinase reaction was initiated by adding […] (1.5 μM) of recombinant retinoblastoma protein, 5 μM ATP and 10μ Ci γ-32P-ATP. The reaction was incubated at 30° C. for 20 minutes, and was terminated by adding 2× Laemmli sample buffer, heated at 95° C. for three minutes, and the resulting solution was dissolved with 12% acrylamide SDS-PAGE and autoradiographed. A densitometer (Bio-Rad) was used to quantify the corresponding phosphorylated substrate protein bands. The resulting density values were plotted as a function of the log drug concentration using Prism 4 Graphpad software. IC50 values were determined by plotting a non-linear regression curve with a variable slope.
The inhibitory activity of the compounds disclosed herein against CDK6/cyclin D1 was tested by a similar method.
The compounds were tested in a three-fold serial dilution from the starting concentration of 10 μM, over 10-fold of IC50. The control compound, staurosporine, was tested in a four-fold serial dilution from the starting concentration of 20 μM, over 10-fold of IC50. These reactions took place in the presence of 10 μM ATP.

Assay [2] concerns the target T1, recombinant CDK4/Cyclin D1 (Homo sapiens, UniProt P11802).
T1 construct: purchased Life Technologies PV4204
Put plainly: Biochemical kinase inhibition test, CDK4/Cyclin D1 (32P-ATP, retinoblastoma protein substrate). The note with it: three-fold serial dilution from 10 μM; 10 μM ATP; read-out: CDK4/D1 (nM), enzyme inhibitory activity IC50.

A value given as a limit tells only on which side of the number the result lay.

T1 sequence (P11802 whole entry): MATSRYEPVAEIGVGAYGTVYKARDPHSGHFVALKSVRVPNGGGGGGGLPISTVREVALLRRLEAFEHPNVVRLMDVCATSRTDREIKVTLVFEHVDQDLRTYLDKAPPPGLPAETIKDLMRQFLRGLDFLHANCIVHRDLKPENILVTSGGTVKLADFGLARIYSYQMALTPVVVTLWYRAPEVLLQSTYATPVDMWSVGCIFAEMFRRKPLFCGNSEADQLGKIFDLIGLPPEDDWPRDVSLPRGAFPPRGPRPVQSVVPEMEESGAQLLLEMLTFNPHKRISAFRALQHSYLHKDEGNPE
T1 sequence (P24385 whole entry partner): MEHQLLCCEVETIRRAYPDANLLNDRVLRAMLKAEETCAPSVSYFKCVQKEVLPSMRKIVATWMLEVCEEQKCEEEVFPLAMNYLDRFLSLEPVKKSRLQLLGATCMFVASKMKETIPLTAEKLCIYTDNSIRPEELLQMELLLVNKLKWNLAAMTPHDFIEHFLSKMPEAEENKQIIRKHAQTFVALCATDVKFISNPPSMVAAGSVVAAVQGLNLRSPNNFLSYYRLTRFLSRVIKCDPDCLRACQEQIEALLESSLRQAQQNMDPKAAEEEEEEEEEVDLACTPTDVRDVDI
Sequence of CDK6/cyclin D1 (Q00534 whole entry, species assumed): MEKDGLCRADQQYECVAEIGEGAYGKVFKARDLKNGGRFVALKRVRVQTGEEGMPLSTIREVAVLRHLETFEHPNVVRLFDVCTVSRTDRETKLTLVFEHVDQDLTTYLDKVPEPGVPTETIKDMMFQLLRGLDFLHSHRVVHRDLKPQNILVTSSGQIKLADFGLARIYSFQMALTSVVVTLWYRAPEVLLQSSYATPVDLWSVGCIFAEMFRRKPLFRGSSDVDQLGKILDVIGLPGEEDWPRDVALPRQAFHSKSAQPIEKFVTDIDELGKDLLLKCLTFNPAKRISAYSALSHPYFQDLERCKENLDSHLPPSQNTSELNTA
Sequence of CDK6/cyclin D1 (P24385 whole entry partner, species assumed): as the sequence (P24385 whole entry partner) above

For the compound `c1cc(Nc2ncc3ccc4cnn(C5CCCC5)c4c3n2)ncc1N1CCOCC1` [Compound I-42], the IC50 in assay [1] and in assay [2] was 1 to 5 nM throughout.
`Cc1nc(Nc2ncc3ccc4cnn(C5CCCC5)c4c3n2)ccc1N1CCOCC1` [Compound I-43]: the IC50 in assay [1] and in assay [2] was 1 to 5 nM in each case.
On to `Cc1cc(Nc2ncc3ccc4cnn(C5CCCC5)c4c3n2)ncc1N1CCOCC1` [Compound I-44], for which the IC50 in assay [1] and in assay [2] was 10 to 20 nM in each case.
For `CCn1ncc2ccc3cnc(Nc4ccc(N5CCNCC5)cn4)nc3c21.Cl` [Compound I-45], in assay [1], the “selectivity for CDK6/cyclin D1 relative to CDK4/cyclin D1 (enzyme inhibitory activity)” value is “about 3 times” and the IC50 lay in the range of 5 to 10 nM. In assay [2], the IC50 was 10 to 20 nM.
The matching figures for `CCn1ncc2ccc3cnc(Nc4cc(F)c(N5CCNCC5)cn4)nc3c21.Cl` [Compound I-46]: “about 2 times”, 10 to 20 nM and 20 to 50 nM.
With `CCn1ncc2ccc3cnc(Nc4ccc(N5CCNCC5)c(F)n4)nc3c21.Cl` [Compound I-47], in assay [1], the “selectivity for CDK6/cyclin D1 relative to CDK4/cyclin D1 (enzyme inhibitory activity)” value was “about 2 times” and the IC50 was 5 to 10 nM. The IC50 in assay [2] lay within 10 to 20 nM.
The matching figures for `CCN1CCN(c2ccc(Nc3ncc4ccc5cnn(CC)c5c4n3)nc2)CC1` [Compound I-48]: “about 3 times”, 5 to 10 nM and 10 to 20 nM.
Turning to `CCN1CCN(c2cnc(Nc3ncc4ccc5cnn(CC)c5c4n3)cc2C)CC1` [Compound I-49], in assay [1], the “selectivity for CDK6/cyclin D1 relative to CDK4/cyclin D1 (enzyme inhibitory activity)” value is given as “about 2 times” and the IC50 lay in the range of 10 to 20 nM. Further, the IC50 in assay [2] was in the range of 20 to 50 nM.
Turning to `CCn1ncc2ccc3cnc(Nc4ccc(N5CCOCC5)cn4)nc3c21` [Compound I-50], the “selectivity for CDK6/cyclin D1 relative to CDK4/cyclin D1 (enzyme inhibitory activity)” value in assay [1] is “about 3 times”. Moreover, the IC50 lay in the range of 5 to 10 nM in assay [1] and 10 to 20 nM in assay [2].
As to `CCn1ncc2ccc3cnc(Nc4cc(C)c(N5CCN(C)CC5)cn4)nc3c21` [Compound I-51], in assay [1], the “selectivity for CDK6/cyclin D1 relative to CDK4/cyclin D1 (enzyme inhibitory activity)” value was “about 2 times” and the IC50 was in the range of 10 to 20 nM. The IC50 in assay [2] is 20 to 50 nM.
For the compound `CCn1ncc2ccc3cnc(Nc4cc(C)c(N5CCOCC5)cn4)nc3c21` [Compound I-52], the IC50 in assay [1] and in assay [2] was 10 to 20 nM in each case.
`Cl.c1cc(Nc2ncc3ccc4cnn(C5CC5)c4c3n2)ncc1N1CCNCC1` [Compound I-53]: in assay [1], the “selectivity for CDK6/cyclin D1 relative to CDK4/cyclin D1 (enzyme inhibitory activity)” value is on record as “about 2 times” and the IC50 lay in the range of 5 to 10 nM. In assay [2], the IC50 is 10 to 20 nM.
The matching figures for `Cl.Fc1cc(Nc2ncc3ccc4cnn(C5CC5)c4c3n2)ncc1N1CCNCC1` [Compound I-54]: “about 2 times”, 10 to 20 nM and 20 to 50 nM.
On the same counts, the results for `Cc1cc(Nc2ncc3ccc4cnn(C5CC5)c4c3n2)ncc1N1CCN(C)CC1` [Compound I-55] are “about 2 times”, 10 to 20 nM and 20 to 50 nM.
On the same counts, the results for `CCN1CCN(c2ccc(Nc3ncc4ccc5cnn(C6CC6)c5c4n3)nc2)CC1` [Compound I-56] are “about 3 times”, 5 to 10 nM and 10 to 20 nM.
With `CCN1CCN(c2cnc(Nc3ncc4ccc5cnn(C6CC6)c5c4n3)cc2C)CC1` [Compound I-57], the IC50 in assay [1] and in assay [2] was 10 to 20 nM each time.
On to `c1cc(Nc2ncc3ccc4cnn(C5CC5)c4c3n2)ncc1N1CCOCC1` [Compound I-58], for which the “selectivity for CDK6/cyclin D1 relative to CDK4/cyclin D1 (enzyme inhibitory activity)” value in assay [1] is given as “about 3 times”. Also, the IC50 was in the range of 5 to 10 nM in assay [1] and 10 to 20 nM in assay [2].
As for `Cc1cc(Nc2ncc3ccc4cnn(C5CC5)c4c3n2)ncc1N1CCOCC1` [Compound I-59], the IC50 in assay [1] and in assay [2] was 10 to 20 nM throughout.
On to `CC1CN(c2ccc(Nc3ncc4ccc5cnn(C6CC6)c5c4n3)nc2)CCO1` (stereo not drawn) [Compound I-60], for which the IC50 in assay [1] and in assay [2] was 10 to 20 nM each time.
As to `CC(C)n1ncc2c(Br)cc3cnc(Nc4ccc(N5CCNCC5)cn4)nc3c21` [Compound I-61], the IC50 in assay [1] and in assay [2] was 10 to 20 nM in each case.
Regarding `CC(C)n1ncc2c(Br)cc3cnc(Nc4cc(F)c(N5CCNCC5)cn4)nc3c21.Cl` [Compound I-62], in assay [1], the “selectivity for CDK6/cyclin D1 relative to CDK4/cyclin D1 (enzyme inhibitory activity)” value is “about 2 times” and the IC50 was 10 to 20 nM. Also, the IC50 in assay [2] is 20 to 50 nM.
In the case of `CC(C)n1ncc2c(Br)cc3cnc(Nc4ccc(N5CCN(C)CC5)cn4)nc3c21` [Compound I-63], the IC50 in assay [1] and in assay [2] was 10 to 20 nM each time.
Consider `CCN1CCN(c2ccc(Nc3ncc4cc(Br)c5cnn(C(C)C)c5c4n3)nc2)CC1` [Compound I-64], for which the IC50 in assay [1] and in assay [2] was 10 to 20 nM each time.
With `CC(C)n1ncc2c(Br)cc3cnc(Nc4ccc(N5CCOCC5)cn4)nc3c21` [Compound I-65], the IC50 in assay [1] and in assay [2] was 10 to 20 nM in each case.
As for `Cc1cc2cnc(Nc3ccc(N4CCNCC4)cn3)nc2c2c1cnn2C(C)C.Cl` [Compound I-66], in assay [1], the “selectivity for CDK6/cyclin D1 relative to CDK4/cyclin D1 (enzyme inhibitory activity)” value is reported as “about 3 times” and the IC50 fell in the range of 1 to 5 nM. Further, the IC50 in assay [2] was in the range of 10 to 20 nM.
On the same counts, the results for `Cc1cc2cnc(Nc3cc(F)c(N4CCNCC4)cn3)nc2c2c1cnn2C(C)C.Cl` [Compound I-67] are “about 2 times”, 10 to 20 nM and 20 to 50 nM.
`Cc1cc2cnc(Nc3ccc(N4CCN(C)CC4)cn3)nc2c2c1cnn2C(C)C` [Compound I-68]: the IC50 in assay [1] fell in the range of 1 to 5 nM; in assay [2] it was 10 to 20 nM.
On the same counts, the results for `CCN1CCN(c2ccc(Nc3ncc4cc(C)c5cnn(C(C)C)c5c4n3)nc2)CC1` [Compound I-69] are 1 to 5 nM and 10 to 20 nM.
As for `Cc1cc2cnc(Nc3ccc(N4CCOCC4)cn3)nc2c2c1cnn2C(C)C` [Compound I-70], the IC50 in assay [1] and in assay [2] was 10 to 20 nM throughout.
Turning to `CC(C)n1ncc2c(C#N)cc3cnc(Nc4ccc(N5CCNCC5)cn4)nc3c21.Cl` [Compound I-71], in assay [1], the “selectivity for CDK6/cyclin D1 relative to CDK4/cyclin D1 (enzyme inhibitory activity)” value is “about 3 times” and the IC50 is 1 to 5 nM. Moreover, the IC50 in assay [2] is 10 to 20 nM.
The matching figures for `CC(C)n1ncc2c(C#N)cc3cnc(Nc4cc(F)c(N5CCNCC5)cn4)nc3c21.Cl` [Compound I-72]: “about 2 times”, 10 to 20 nM and 20 to 50 nM.
On the same counts, the results for `CCN1CCN(c2ccc(Nc3ncc4cc(C#N)c5cnn(C(C)C)c5c4n3)nc2)CC1` [Compound I-73] are “about 3 times”, 1 to 5 nM and 10 to 20 nM.
Regarding `CC(C)n1ncc2c(C#N)cc3cnc(Nc4ccc(N5CCOCC5)cn4)nc3c21` [Compound I-74], in assay [1], the “selectivity for CDK6/cyclin D1 relative to CDK4/cyclin D1 (enzyme inhibitory activity)” value was “about 3 times” and the IC50 is 1 to 5 nM. For the same compound, the IC50 in assay [2] lay in the range of 10 to 20 nM.
As for `CC(=O)c1cc2cnc(Nc3ccc(N4CCNCC4)cn3)nc2c2c1cnn2C(C)C` [Compound I-75], the IC50 was less than 1 nM in assay [1] and 1 to 5 nM in assay [2].
On to `CC(=O)c1cc2cnc(Nc3cc(F)c(N4CCNCC4)cn3)nc2c2c1cnn2C(C)C.Cl` [Compound I-76], for which, in assay [1], the “selectivity for CDK6/cyclin D1 relative to CDK4/cyclin D1 (enzyme inhibitory activity)” value is given as “about 2 times” and the IC50 fell in the range of 5 to 10 nM. Moreover, in assay [2], the IC50 was 10 to 20 nM.
As for `CC(=O)c1cc2cnc(Nc3ccc(N4CCN(C)CC4)cn3)nc2c2c1cnn2C(C)C` [Compound I-77], the figures for the IC50 in assay [1] and in assay [2] were less than 1 nM and 5 to 10 nM, respectively.
On the same counts, the results for `CCN1CCN(c2ccc(Nc3ncc4cc(C(C)=O)c5cnn(C(C)C)c5c4n3)nc2)CC1` [Compound I-78] are less than 1 nM and 1 to 5 nM.
On the same counts, the results for `CC(=O)c1cc2cnc(Nc3ccc(N4CCOCC4)cn3)nc2c2c1cnn2C(C)C` [Compound I-79] are less than 1 nM and 5 to 10 nM.
On to `COc1cc(OC)cc(-c2cc3cnc(Nc4ccc(N5CCNCC5)cn4)nc3c3c2cnn3C(C)C)c1.Cl` [Compound I-80], for which, in assay [1], the “selectivity for CDK6/cyclin D1 relative to CDK4/cyclin D1 (enzyme inhibitory activity)” value is recorded as “about 3 times” and the IC50 lay in the range of 1 to 5 nM. Also, in assay [2], the IC50 lay in the range of 5 to 10 nM.
On the same counts, the results for `CCN1CCN(c2ccc(Nc3ncc4cc(-c5cc(OC)cc(OC)c5)c5cnn(C(C)C)c5c4n3)nc2)CC1` [Compound I-81] are “about 3 times”, 1 to 5 nM and 5 to 10 nM.

(Values after patent publication US11993604B2, “Substituted pyrazolo[4,3-H]quinazolines as protein kinase inhibitors” (SHENGKE PHARMACEUTICALS (JIANGSU) LTD., priority 2017, dated 2024).)
